# From patent US8563741B2, “CDK inhibitors containing a zinc binding moiety” (Curis, Inc., priority 2007, dated 2013)
# What was measured:
# [1] = target: T1, CDK1/cyclinB (Homo sapiens, UniProt P06493); experiment: CDK activity assay with p33 ATP, CDK1/cyclinB; format: biochemical; settings: 1 μM ATP
# T1 construct: C-terminal 6His-tagged human full length cdk1 (MW=35 kDa); 6His (C); made in house; host or cells: Sf21 insect cells (baculovirus)
# Description: CDK1/cyclinB (Accession Number for CDK1; GenBankNM_001786, for cyclinB; EMBL M25753):
# C-terminal 6His-tagged human full length cdk1 (MW=35 kDa), and N-terminal GST-tagged human full length cyclin B (MW=75 kDa) were expressed individually with baculovirus system in Sf21 insect cells. Recombinant proteins were purified using Ni2+/NTA-agarose and GST-agarose, respectively. The cdk1 was then activated using CAK and repurified by Q Sepharose and Ni2+/NTA-agarose. They were then mixed in vitro to form protein complex. The purity of these protein complex was estimated to be 80.5% by SDSPAGE and Coomassie blue staining. Specific Activity of recombinant enzyme was measyre to be 1329 U/mg, where one unit of cdk1/cyclinB activity is defined as 1 nmol phosphate incorporated into 0.1 mg/ml histone H1 per minute at 30° C. with a final ATP concentration of […]. Enzyme was stored at concentration of 0.1 mg/ml in 50 mM Tris/HCl pH7.5, 150 mM NaCl, 0.1 mM EGTA, 0.03% Brij-35, 270 mM sucrose, 1 mM benzamidine, 0.2 mM PMSF, 0.1% 2-mercaptoethanol.
# [2] = target: T2, CDK3/cyclinE (Homo sapiens, UniProt Q00526); experiment: CDK activity assay with p33 ATP, CDK3/cyclinE; format: biochemical; settings: 1 μM ATP
# T2 construct: C-terminal 6His-tagged recombinant human full-length cdk3 (MW=36 kDa); 6His (C); made in house; host or cells: Sf21 insect cells (baculovirus)
# Method: CDK3/cyclinE (Accession Number for CDK3; GenBank X66357, for Cyclin E; GenBank NM_001238):
# C-terminal 6His-tagged recombinant human full-length cdk3 (MW=36 kDa) were coexpressed with N-terminal GST-tagged recombinant human full-length cyclin E (MW=74 kDa) with baculovirus system in Sf21 insect cells. Recombinant protein complex was purified using Ni2+/NTA agarose and with purity to be 66% by SDS PAGE and Coomassie blue staining. Specific Activity of recombinant enzyme was measured to be 861 U/mg, where one unit of cdk3/cyclinE activity is defined as 1 nmol phosphate incorporated into 0.1 mg/ml histone H1 per minute at 30° C. with a final ATP concentration of […]. Enzyme was stored at a concentration of 0.1 mg/ml in 50 mM Tris/HCl pH7.5, 150 mM NaCl 0.1 mM EGTA, 0.03% Brij 35, 270 mM sucrose, 1 mM benzamidine, 0.2 mM PMSF, 0.1% 2-mercaptoethanol.
# [3] = tested on: A375 Melanoma xenograft tumors; experiment: Anti-tumor activity in the A375 Melanoma nude mouse xenograft model; format: in vivo; settings: 60 mg/Kg ip daily in 30% CAPTISOL
# Method: FIG. 1 is a graph of tumor size versus time for mice bearing A375 Melanoma xenograft tumors receiving either 60 mg/Kg compound 8 in 30% CAPTISOL iv daily or vehicle only.
# (c) An In Vivo Study of the Anti-Tumor Activity of Compound 8 in 30% CAPTISOL in the A375 Melanoma Nude Mouse Xenograft Model
# Mice were divided into two groups of 5 to 6 mice each. Tumor volumes at the commencement of treatment were 560±230 mm^3. Compound 8 in 30% CAPTISOL was administered daily (60 mg/Kg ip) to one group of animals, while the second group of animals received an equal volume of vehicle.
# [4] = tested on: HL60 AML xenograft tumors; experiment: Anti-tumor activity in the HM60 AML nude mouse xenograft model; format: in vivo; settings: for tumor growth (in words): compound 8 30 mg/Kg, compound 9 60 mg/Kg daily in 30% CAPTISOL
# Method: FIG. 2 is a graph of tumor size versus time for mice bearing HL60 AML xenograft tumors receiving 30 mg/Kg compound 8 in 30% CAPTISOL iv daily, 60 mg/Kg compound 9 in 30% CAPTISOL iv daily or vehicle only.
# (d) An In Vivo Study of the Anti-Tumor Activity of Compounds 8 and 9 in 30% CAPTISOL in the HM60 AML Nude Mouse Xenograft Model
# Mice were divided into three groups of 4 mice each. Tumor volumes at the commencement of treatment were 157±56 mm^3. One group of mice received 30 mg/Kg compound 8 daily in 30% CAPTISOL, while a second group received 60 mg/Kg compound 9 in 30% CAPTISOL daily. The third group received an equivalent volume of vehicle daily.
# [5] = tested on: OPM2 Multiple Myeloma xenograft tumors; experiment: Anti-tumor activity in the OPM2 Multiple Myeloma nude mouse xenograft model; format: in vivo; settings: 60 mg/Kg iv daily in 30% CAPTISOL
# Method: FIG. 3 is a graph of tumor size versus time for mice bearing OPM2 Multiple Myeloma xenograft tumors receiving either 60 mg/Kg compound 9 in 30% CAPTISOL iv daily or vehicle only.
# (e) An In Vivo Study of the Anti-Tumor Activity of Compound 9 in 30% CAPTISOL in the OPM2 Multiple Myeloma Nude Mouse Xenograft Model
# Mice were divided into two groups of 7 mice each. Treatment began when the tumor sizes were 276±46 mm^3. Compound 9 in 30% CAPTISOL was administered to the animals daily at 60 mg/Kg iv.
# T2 sequence (Q00526 whole entry): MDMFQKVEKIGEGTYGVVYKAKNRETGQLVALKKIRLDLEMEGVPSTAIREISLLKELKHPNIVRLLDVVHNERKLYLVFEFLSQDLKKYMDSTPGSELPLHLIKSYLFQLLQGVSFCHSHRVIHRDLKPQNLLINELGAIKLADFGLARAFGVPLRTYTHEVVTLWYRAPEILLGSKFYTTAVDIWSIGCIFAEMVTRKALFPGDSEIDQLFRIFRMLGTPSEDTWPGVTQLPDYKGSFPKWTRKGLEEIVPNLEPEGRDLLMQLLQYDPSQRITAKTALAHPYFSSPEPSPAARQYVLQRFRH
# T2 sequence (P24864 whole entry partner): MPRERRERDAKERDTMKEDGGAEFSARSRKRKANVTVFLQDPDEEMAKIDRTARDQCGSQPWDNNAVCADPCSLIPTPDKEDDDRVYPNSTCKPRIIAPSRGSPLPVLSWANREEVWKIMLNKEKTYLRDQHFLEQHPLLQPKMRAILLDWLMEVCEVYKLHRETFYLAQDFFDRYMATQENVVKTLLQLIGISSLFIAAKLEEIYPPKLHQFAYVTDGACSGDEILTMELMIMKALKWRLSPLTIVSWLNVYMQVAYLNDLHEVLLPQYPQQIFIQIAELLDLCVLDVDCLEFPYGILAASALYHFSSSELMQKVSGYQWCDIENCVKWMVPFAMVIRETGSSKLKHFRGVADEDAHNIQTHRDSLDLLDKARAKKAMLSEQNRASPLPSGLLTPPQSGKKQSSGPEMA
# T1 sequence (P06493 whole entry): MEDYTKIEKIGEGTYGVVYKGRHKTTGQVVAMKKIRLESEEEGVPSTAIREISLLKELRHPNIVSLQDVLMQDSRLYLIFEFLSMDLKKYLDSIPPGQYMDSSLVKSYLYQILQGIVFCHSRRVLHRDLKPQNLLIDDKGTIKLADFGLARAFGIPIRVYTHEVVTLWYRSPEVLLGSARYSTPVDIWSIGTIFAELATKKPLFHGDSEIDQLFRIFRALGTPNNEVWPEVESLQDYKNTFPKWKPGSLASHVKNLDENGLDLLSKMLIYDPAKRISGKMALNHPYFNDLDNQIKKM
# T1 sequence (P14635 whole entry partner): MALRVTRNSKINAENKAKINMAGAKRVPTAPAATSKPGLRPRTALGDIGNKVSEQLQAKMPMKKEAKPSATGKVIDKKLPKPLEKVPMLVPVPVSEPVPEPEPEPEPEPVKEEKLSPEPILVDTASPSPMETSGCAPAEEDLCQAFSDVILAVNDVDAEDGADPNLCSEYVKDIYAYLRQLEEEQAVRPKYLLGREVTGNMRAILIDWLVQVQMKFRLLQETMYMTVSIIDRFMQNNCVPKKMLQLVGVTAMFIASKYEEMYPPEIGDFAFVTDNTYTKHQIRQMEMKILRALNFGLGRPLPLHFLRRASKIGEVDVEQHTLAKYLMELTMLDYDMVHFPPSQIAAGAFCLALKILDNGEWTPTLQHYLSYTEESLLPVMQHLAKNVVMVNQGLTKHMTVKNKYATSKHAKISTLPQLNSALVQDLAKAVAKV
SMILES,IC50 [1] [nM],IC50 [2] [nM],tumor growth (in words) [3],"increase in tumor size ([3]; after 10 days, vehicle about 130% increase) [%]","increase in tumor size ([4]; 30 mg/Kg daily in 30% CAPTISOL, after 10 days, vehicle about 230% change) [%]",tumor growth (in words) [4],melting point [°C],"decrease in tumor size ([4]; 60 mg/Kg daily in 30% CAPTISOL, after 10 days, vehicle about 230% change)",tumor growth (in words) [5],"increase in tumor size ([5]; after 10 days, vehicle about 450% increase) [%]"
"CC(C)(C)c1cnc(CSc2cnc(NC(=O)CCCCCCC(=O)NO)s2)o1 [Compound 8, N^1-(5-((5-tert-butyloxazol-2-yl)methylthio)thiazol-2-yl)-N^8-hydroxyoctanediamide]",< 100,< 100,able to attenuate tumor growth,50,~90,able to attenuate tumor growth,,,,
"CC(C)(C)c1cnc(CSc2cnc(NC(=O)C3CCN(c4ncc(C(=O)NO)cn4)CC3)s2)o1 [Compound 20, 2-(4-(5-((5-tert-butyloxazol-2-yl)methylthio)thiazol-2-ylcarbamoyl)piperidin-1-yl)-N-hydroxypyrimidine-5-carboxamide]",< 100,< 100,,,,,181 to 183,,,
"CC(C)(C)c1cnc(CSc2cnc(NC(=O)Cc3ccc(OCCCC(=O)NO)cc3)s2)o1 [Compound 9, 4-(4-(2-(5-((5-tert-butyloxazol-2-yl)methylthio)thiazol-2-ylamino)-2-oxoethyl)phenoxy)-N-hydroxybutanamide]",< 100,< 100,,,,able to attenuate tumor growth,,about 50%,able to attenuate tumor growth,~50
